Measurements as given in publication PMC7069944, “Amino acid levels determine metabolism and CYP450 function of hepatocytes and hepatoma cell lines” (Nature Communications, 2020).
Several values for one entry are separate records, joined by “and”; a condition that tells them apart may be missing. Equal values may be shown once.

What was measured:
[1] = test system: HepG2; assay: Repeated-exposure DILI training compounds, resazurin conversion, HepG2; conditions: repeat exposure
Description: (§1) To evaluate the ability to predict hepatotoxicity, we adapted the differentiation assays to a 384-well format. […] As a readout, we evaluated cell viability by resazurin conversion and correlated the results to therapeutic doses (Cmax values).
(§2) PSCs were differentiated in a 384-well format. […] As a negative control, 41 wells were left untreated. HepG2 were seeded at 40,000 cells per well. […] Cells were fixed with 4% PFA. […] Drugs were administrated after 8 h of attachment.

[2] = test system: HLC; assay: Repeated-exposure DILI training compounds, resazurin conversion, HLC; conditions: repeat exposure
Description: as §1, §2

[3] = test system: HC3X; assay: Repeated-exposure DILI training compounds, resazurin conversion, HC3X
Description: as §1, §2

[4] = test system: HC6X; assay: Repeated-exposure DILI training compounds, resazurin conversion, HC6X; conditions: repeat exposure
Description: as §1, §2

## COc1ccccc1Oc1c(NS(=O)(=O)c2ccc(C(C)(C)C)cc2)nc(-c2ncccn2)nc1OCCO [bosentan]
[1]; HepG2 AAGLY D30, 3 uM
  % resazurin conversion: 83.9% and 87.5% and 86.6% and 85% and 90.8% and 89.1%
[1]; HepG2 AAGLY D30, 5 uM
  % resazurin conversion: 103.5% and 109.8% and 105.4% and 106.1% and 101% and 103.7%
[1]; HepG2 AAGLY D30, 10 uM
  % resazurin conversion: 90.8% and 98.2% and 96.3% and 97.7% and 97.3% and 97.5%
[1]; HepG2 AAGLY D30, 30 uM
  % resazurin conversion: 90.6% and 101.6% and 98.2% and 101.9% and 99.2% and 99.7%
[1]; HepG2 AAGLY D30, 50 uM
  % resazurin conversion: 84.4% and 90.1% and 80.4% and 87% and 86.9% and 92.2%
[1]; HepG2 AAGLY D30, 600 uM
  % resazurin conversion: 8% and 8.7% and 8.4% and 8.6% and 8.3% and 9%
[1]; HepG2 AAGLY D30, 1200 uM
  % resazurin conversion: 7.9% and 8.6% and 8% and 8.4% and 8.7%
[1]; HepG2 CTL D7, 3 uM
  % resazurin conversion: 72.9% and 95.8% and 79% and 88.4% and 77.2% and 78.8%
[1]; HepG2 CTL D7, 5 uM
  % resazurin conversion: 73% and 91.1% and 80.4% and 81.6% and 71% and 76.1%
[1]; HepG2 CTL D7, 10 uM
  % resazurin conversion: 80.2% and 87.8% and 81.3% and 100.4% and 83.9% and 90.2%
[1]; HepG2 CTL D7, 30 uM
  % resazurin conversion: 88.1% and 98.7% and 86.3% and 105.4% and 85.7% and 92.4%
[1]; HepG2 CTL D7, 50 uM
  % resazurin conversion: 100.8% and 104.7% and 98% and 123.6% and 67.3% and 101.1%
[1]; HepG2 CTL D7, 100 uM
  % resazurin conversion: 111.8% and 105.3% and 106.2% and 109.9% and 117.5%
[1]; HepG2 CTL D7, 300 uM
  % resazurin conversion: 107% and 119.1% and 111.5% and 146.3% and 120.1% and 110.8%
[1]; HepG2 CTL D7, 600 uM
  % resazurin conversion: 50.2% and 44.9% and 48.2% and 53.5% and 46.5% and 47.5%
[1]; HepG2 CTL D7, 1200 uM
  % resazurin conversion: 40.4% and 38.1% and 40.3% and 39.7% and 40.2% and 39%
[2]; HLC AAGLY D40, 3 uM
  % resazurin conversion: 109.3% and 112.7% and 130.6% and 92% and 117.8% and 119.8%
[2]; HLC AAGLY D40, 10 uM
  % resazurin conversion: 148.2% and 164.2% and 142.5% and 106% and 129.2% and 90.2%
[2]; HLC AAGLY D40, 30 uM
  % resazurin conversion: 132.6% and 125.2% and 98.6% and 133% and 124.8%
[2]; HLC AAGLY D40, 300 uM
  % resazurin conversion: 153.6% and 174.4% and 181% and 131.1% and 171.9% and 113.3%
[2]; HLC LDM D40, 3 uM
  % resazurin conversion: 65.2% and 80.9% and 104.5% and 116.7% and 90.6% and 90.5%
[2]; HLC LDM D40, 5 uM
  % resazurin conversion: 79.3% and 100.8% and 63.5% and 57.3% and 83.2% and 66.4%
[2]; HLC LDM D40, 10 uM
  % resazurin conversion: 54.2% and 93.9% and 81.1% and 77.7% and 59.3% and 81.3%
[2]; HLC LDM D40, 50 uM
  % resazurin conversion: 60.7% and 70.7% and 67.1% and 86.7% and 80.2% and 104.9%
[2]; HLC LDM D40, 100 uM
  % resazurin conversion: 75% and 93.6% and 100.7% and 102.7% and 92.9% and 94.1%
[3]; human
  IC50/Cmax: 20.81
[3]; repeat exposure, HC3X AAGLY D40, 600 uM
  % resazurin conversion: 1159% and 1257% and 1241% and 1301% and 1247% and 1406%
[4]; HC6X AAGLY D40, 3 uM
  % resazurin conversion: 121.3% and 137.4% and 77.6% and 97.3% and 111.3% and 90.5%
[4]; HC6X AAGLY D40, 5 uM
  % resazurin conversion: 110% and 103.2% and 89.1% and 89.6% and 114.4% and 93.7%
[4]; HC6X AAGLY D40, 10 uM
  % resazurin conversion: 131.4% and 134.4% and 92.1% and 126.5% and 93.7% and 145.1%
[4]; HC6X AAGLY D40, 50 uM
  % resazurin conversion: 121.5% and 126.6% and 76.5% and 101.9% and 125.3% and 68.1%
[4]; HC6X AAGLY D40, 300 uM
  % resazurin conversion: 51.6% and 48.9% and 38.5% and 48% and 36.4% and 37.5%
[4]; HC6X AAGLY D40, 600 uM
  % resazurin conversion: 42.8% and 51.2% and 38.6% and 45.8% and 36.3% and 36.8%
[4]; HC6X AAGLY D40, 1200 uM
  % resazurin conversion: 43.6% and 36.9% and 34.8% and 34.9% and 34.2% and 34.3%
[4]; HC6X AAGLY D40 Remove dox, 5 uM
  % resazurin conversion: 141.3% and 131.9% and 106.3% and 141.8% and 135.5% and 84.1%
[4]; HC6X AAGLY D40 Remove dox, 10 uM
  % resazurin conversion: 112.1% and 102.7% and 152.9% and 116.3% and 149.9% and 95.7%
